From patent publication US20120107861A1, “METHOD OF DETERMINING RISK OF ARRHYTHMIA” (priority 2010, published 2012)
Like-named read-outs stand apart in the source and are kept apart here.

Key:
[1] = system: human iPSC-derived cardiomyocytes (iCells); conditions: for IB20: lowest concentration producing IBR ≥0.2 (≥20% irregular beats over one minute); for amplitude of impedance: amplitude of each beat
Protocol: Cell Culture. hiPSC-derived cardiomyocytes (iCells) from Cellular Dynamics International (CDT) were thawed in Plating Media (CDI and plated as single cells onto 0.1% Gelatin (Sigma)-coated, 6-well tissue-culture plates (Corning) at a density of 2.2−2.7×10^6 cells per well. Cells were cultured for 3-5 d at 37° C., 7% CO2 prior to re-plating onto xCELLigence® 96-well cardio e-plates (ACEA/Roche Applied Sciences) or microelectrode arrays (MEAs, Multichannel Systems). The media was changed every 2 d after plating using Maintenance Media (CDI), pre-warmed to 37° C. to minimize the temperature shock on cells.
xCELLigence® cardio e-plates and MEA Re-plating. iCells cultured in 6-well plates were harvested by twice washing in dPBS (GIBCO) then lifted with 0.5% Trypsin-EDTA (GIBCO), incubated at 37° C., 7% CO2. Trypsin was quenched with Maintenance Media and cells were collectively centrifuged at 69 g for 5 minutes and resuspended in Maintenance Media to yield the target density. For cardio e-plate reseeding, cells were plated at a target density of 5×10^4 per well, estimating 80% seeding efficiency. Cardio e-plates were coated with 0.1% Gelatin for 3 h at 37° C. Background impedance measurements for cardio e-plates were made with the final volume of media equilibrated to 37° C. but without cells, immediately prior to reseeding the cells. The cells were monitored every 1 h by a 20 s sweep duration by the xCELLigence® RTCA cardio system at its maximum sampling rate (77 Hz) prior to initiating experimentation.
xCELLigence® and MEA Experimentation. Compound stocks were prepared in DMSO or dH2O at 1000 fold the highest tested concentration. For xCELLigence® experimentation, compound stocks were serially diluted in Maintenance Media in a separate 96-well tissue culture plate (Corning) at twice the target concentration. The dilution plate was incubated and equilibrated to 37° C. prior to cell exposure. […] All compounds were tested as n≧3 on multiple cardio e-plates. The xCELLigence® monitored changes to the beating for periodic 20 s sweep durations at 77 Hz.
Data Analysis. Data were first analyzed by the built-in analysis modules of xCELLigence® and MEAs systems, initial results were then exported into in-house developed Microsoft Excel templates for further semi-auto analysis. […] To calculate the “Predicted Proarrhythmic Score” (PPS), we first determined a “Irregular Beat Ratio” (IBR). The IBR was defined as the ratio of arrhythmic beat counts to the total number of beats over one minute. IBR values for each concentration at each selected time-point was averaged from 3 to 5 e-plates. The lowest concentration of drug, that generated a IBR value ≧0.2 was determined and termed “IB20.” Finally, the maximal therapeutic plasma concentration (Cmax) was divided by the IB20 to arrive at the PPS. A PPS >100 is a level of concern for drug-induced arrhythmia. […]

[2] = maximum therapeutic plasma concentration, cited from earlier work
TdP = conditions: clinical; cited from earlier work
QT interval = conditions: cited from earlier work
[3] = system: human iPSC-derived cardiomyocytes (iCells); assay: Multi-electrode array (MEA) field potential recording of iPSC-derived cardiomyocytes; assay type: cell-based; conditions: iPSC-CMs
Protocol: MEAs were prepared according to manufacturer guidelines. Briefly, microelectrodes in 6-well MEA dishes were coated with 2 μL Fibronectin (Sigma) diluted 1:20 and incubated at 37° C. for 3 h. Cells were reseeded at the target density of 3×10^4 cells in a 2 μL delivery to microelectrodes and incubated at 37° C., 7% CO2 for 3 h prior to filling each well with Maintenance Media. The media of cardio e-plates and MEAs were changed every 2 d thereafter, using Maintenance Media warmed to 37° C. Cells were cultured for 3-7 d prior to conducting an experiment on cardio e-plates or MEAs.
The wells of the MEAs had half the volume in each well replaced with fresh warm Maintenance Media, immediately prior to experimentation so as to be consistent with the media replacement for xCELLigence® experimentation. MEAs were allowed a 15 min equilibration period within the MEA recorder system (Multichannel Systems), prior to compound exposure. The temperature was maintained at 37° C. and a constant air flow of 95% O2, 5% CO2, was perfused over the MEAs. Compound additions were made in serially increasing additions, recording for 15 min at each concentration. All compounds were tested as n≧4 wells.

hERG channel = hERG channel (Homo sapiens, UniProt Q12809); conditions: cited from earlier work
hERG channel, sequence (Q12809 whole entry): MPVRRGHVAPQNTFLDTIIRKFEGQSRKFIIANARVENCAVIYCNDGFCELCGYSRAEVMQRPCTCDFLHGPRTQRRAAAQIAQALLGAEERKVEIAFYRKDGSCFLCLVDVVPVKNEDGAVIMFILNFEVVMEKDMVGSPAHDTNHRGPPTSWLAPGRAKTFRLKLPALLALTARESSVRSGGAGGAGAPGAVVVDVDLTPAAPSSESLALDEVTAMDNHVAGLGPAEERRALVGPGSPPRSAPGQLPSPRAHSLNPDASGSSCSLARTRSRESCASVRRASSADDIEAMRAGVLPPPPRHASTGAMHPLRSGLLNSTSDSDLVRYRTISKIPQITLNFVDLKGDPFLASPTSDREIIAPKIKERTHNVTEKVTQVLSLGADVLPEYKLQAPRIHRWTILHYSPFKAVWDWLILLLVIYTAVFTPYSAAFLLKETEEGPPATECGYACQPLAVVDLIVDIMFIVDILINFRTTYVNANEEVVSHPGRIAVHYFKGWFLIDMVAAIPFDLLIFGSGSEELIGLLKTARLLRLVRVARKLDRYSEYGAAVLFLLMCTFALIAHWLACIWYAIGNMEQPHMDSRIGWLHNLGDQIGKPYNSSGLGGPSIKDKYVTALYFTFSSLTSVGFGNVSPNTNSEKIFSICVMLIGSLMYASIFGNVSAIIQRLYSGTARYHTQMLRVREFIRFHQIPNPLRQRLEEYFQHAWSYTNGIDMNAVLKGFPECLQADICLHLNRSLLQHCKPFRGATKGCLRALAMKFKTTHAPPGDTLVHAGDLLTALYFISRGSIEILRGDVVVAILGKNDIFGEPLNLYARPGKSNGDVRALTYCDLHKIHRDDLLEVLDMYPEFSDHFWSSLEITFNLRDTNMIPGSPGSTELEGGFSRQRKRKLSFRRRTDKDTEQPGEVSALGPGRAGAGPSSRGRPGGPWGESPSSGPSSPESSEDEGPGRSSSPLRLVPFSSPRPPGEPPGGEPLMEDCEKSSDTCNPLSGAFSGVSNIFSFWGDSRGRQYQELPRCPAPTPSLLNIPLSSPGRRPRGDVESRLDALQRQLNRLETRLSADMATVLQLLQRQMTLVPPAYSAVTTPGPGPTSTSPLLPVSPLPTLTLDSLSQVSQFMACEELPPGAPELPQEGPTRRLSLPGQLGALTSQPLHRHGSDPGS

[4] = Table I, Cmax/IB20, cut-off >100 as level of concern

With `CCN1C[C@]2(COC)[C@H](O)C[C@H](OC)[C@@]34[C@@H]5C[C@@]6(O)[C@H](OC(=O)c7ccccc7)[C@@H]5[C@@](OC(C)=O)([C@@H]([C@H](OC)[C@H]23)[C@@H]14)[C@@H](O)[C@@H]6OC` [Aconitine] the “concentration showing arrhythmia relative to the efficacious concentration” value [1] was “arrhythmia at concentrations less than the efficacious concentration”, the PPS [1, 4] was 2567 and the IB20 ([1]; Table I) was 0.03 µM. For the same compound, the IB20 ([1]; Table II) was 0.03 µM, the PPS ([1]; human) was 0.4 and the Cmax ([2]; Table I) was 77 nM. The Cmax ([2]; Table II) was 77 nM.

For `COc1cc2nc(N(C)CCCNC(=O)C3CCCO3)nc(N)c2cc1OC` (centres unmarked) [Alfuzosin], the “effect at concentrations substantially higher than employed in vivo” value [1] is listed as “beat rate reduction and appearance of arrhythmic beats”, the Cmax ([2]; Table I) is listed as 56 nM and the Cmax ([2]; Table II) is listed as 56 nM. For the same compound, the “TdP liability” value (TdP) was “free of TdP” and the “QT prolongation” value (QT interval; in patients / in vivo) was “induce QT prolongation”.

In the case of `CCCCc1oc2ccccc2c1C(=O)c1cc(I)c(OCCN(CC)CC)c(I)c1` [Amiodarone], the “TdP liability” value (TdP) is given as “very low risk of TdP”.

In the case of `CC1(C)S[C@@H]2[C@H](NC(=O)[C@H](N)c3ccc(O)cc3)C(=O)N2[C@H]1C(=O)O` [Amoxicillin], the IB20 ([1]; Table I) is given as >1,000 μM, the IB20 ([1]; Table II) is given as >1,000,000 nM and the Cmax ([2]; Table I) is given as 17000 nM. The Cmax ([2]; Table II) was 17000 nM, the “TdP liability” value (TdP) was “devoid of QT prolongation and TdP liability” and the “QT prolongation” value (QT interval; in patients / in vivo) was “devoid of QT prolongation”.

In the case of `CC(=O)Oc1ccccc1C(=O)O` [Aspirin], the Cmax ([2]; Table I) is listed as 10000 nM, the Cmax ([2]; Table II) is listed as 10000 nM and the “TdP liability” value (TdP) is listed as “devoid of QT prolongation and TdP liability”. For the same compound, the “QT prolongation” value (QT interval; in patients / in vivo) was “devoid of QT prolongation”.

In the case of `COc1ccc(CCN2CCC(Nc3nc4ccccc4n3Cc3ccc(F)cc3)CC2)cc1` [Astemizole], the Cmax ([2]; Table I) is given as 8 nM and the Cmax ([2]; Table II) is given as 8 nM.

In the case of `C[C@H](CS)C(=O)N1CCC[C@H]1C(=O)O` [Captopril], the PPS [1, 4] is given as <25, the Cmax ([2]; Table I) is given as 2470 nM and the Cmax ([2]; Table II) is given as 2470 nM. The “QT prolongation” value (QT interval; human, in vivo) was “devoid of QT prolongation”.

In the case of `COc1cc(N)c(Cl)cc1C(=O)NC1CCN(CCCOc2ccc(F)cc2)CC1OC` (centres unmarked) [Cisapride], the “alterations in beat patterns / arrhythmic beats” value [1] is given as “Irregular beating patterns were observed”, the Cmax ([2]; Table I) is given as 129 nM and the Cmax ([2]; Table II) is given as 129 nM.

For `CN(CCOc1ccc(NS(C)(=O)=O)cc1)CCc1ccc(NS(C)(=O)=O)cc1` [Dofetilide], the PPS [1, 4] is given as 2000, the PPS ([1]; human) is given as 0.5 and the Cmax ([2]; Table I) is given as 6 nM. The Cmax ([2]; Table II) was 6 nM.

In the case of `Cc1cccc(CCN2CCC(C(=O)c3ccc(NS(C)(=O)=O)cc3)CC2)n1` [E-4031], the beat rate ([1]; iPSC-CMs, impedance) is reported as “dose-dependent reduction in beat rate”.

In the case of `CC[C@H]1OC(=O)[C@H](C)[C@@H](O[C@H]2C[C@@](C)(OC)[C@@H](O)[C@H](C)O2)[C@H](C)[C@@H](O[C@@H]2O[C@H](C)C[C@H](N(C)C)[C@H]2O)[C@](C)(O)C[C@@H](C)C(=O)[C@H](C)[C@@H](O)[C@]1(C)O` [Erythromycin], the “alterations in beat patterns / arrhythmic beats” value [1] is listed as “Irregular beating patterns were observed”, the Cmax ([2]; Table I) is listed as 34100 nM and the Cmax ([2]; Table II) is listed as 34100 nM.

For `CNCCC(Oc1ccc(C(F)(F)F)cc1)c1ccccc1` (centres unmarked) [Fluoxetine], the Cmax ([2]; Table I) is given as 485 nM, the Cmax ([2]; Table II) is given as 485 nM and the “TdP liability” value (TdP) is given as “very low risk of TdP”.

In the case of `CC(C)NCC(O)c1ccc(O)c(O)c1` (centres unmarked) [Isoproterenol], the amplitude of impedance ([1]; iPSC-CMs) is reported as “increased”, the beat rate ([1]; iPSC-CMs, impedance) is reported as “increased” and the “beat rate in MEA” value [3] is reported as “increased”.

For `COc1c(N2C[C@@H]3CCCN[C@@H]3C2)c(F)cc2c(=O)c(C(=O)O)cn(C3CC3)c12` [Moxifloxacin], the “alterations in beat patterns / arrhythmic beats” value [1] was “not torsadogenic”, the PPS [1, 4] was <103 and the PPS ([1]; human) was >10. The Cmax ([2]; Table I) was 10300 nM, the Cmax ([2]; Table II) was 10300 nM and the “QT prolongation” value (QT interval; human, in vivo) was “induce QT prolongation”. The “hERG inhibition” value (hERG channel) was “inhibit hERG”.

In the case of `C[C@@H]1O[C@@H](O[C@H]2C[C@@H](O)[C@]3(CO)[C@H]4[C@H](O)C[C@]5(C)[C@@H](C6=CC(=O)OC6)CC[C@]5(O)[C@@H]4CC[C@]3(O)C2)[C@H](O)[C@H](O)[C@H]1O` [Ouabain], the PPS [1, 4] is reported as 5667, the IB20 ([1]; Table I) is reported as 0.03 µM and the IB20 ([1]; Table II) is reported as 0.03 µM. For the same compound, the PPS ([1]; human) was 0.2, the “alterations in beat patterns / arrhythmic beats” value ([1]; human iPSC-CMs) was “Irregular beating patterns were observed” and the amplitude of impedance ([1]; iPSC-CMs) was “increased”. The Cmax ([2]; Table I) was 170 nM, the Cmax ([2]; Table II) was 170 nM and the “amplitude in MEA” value ([3]; for nifedipine Ca2+-peak amplitude) was “increased”.

In the case of `C=C[C@H]1C[N@@]2CC[C@H]1C[C@@H]2[C@@H](O)c1ccnc2ccc(OC)cc12` [Quinidine], the “alterations in beat patterns / arrhythmic beats” value [1] is reported as “Irregular beating patterns were observed”, the PPS [1, 4] is reported as 2158 and the PPS ([1]; human) is reported as 0.5. For the same compound, the Cmax ([2]; Table I) was 21600 nM and the Cmax ([2]; Table II) was 21600 nM.

For `COc1ccccc1OCC(O)CN1CCN(CC(=O)Nc2c(C)cccc2C)CC1` (centres unmarked) [Ranolazine], the “alterations in beat patterns / arrhythmic beats” value [1] is given as “not torsadogenic”, the Cmax ([2]; Table I) is given as 6010 nM and the Cmax ([2]; Table II) is given as 6010 nM. The “TdP liability” value (TdP) was “free of TdP”, the “QT prolongation” value (QT interval; in patients / in vivo) was “induce QT prolongation” and the “hERG inhibition” value (hERG channel) was “inhibit hERG”.

For `CS(=O)(=O)c1ccc(C2=C(c3ccccc3)C(=O)OC2)cc1` [Rofecoxib], the Cmax ([2]; Table I) is given as 1020 nM, the Cmax ([2]; Table II) is given as 1020 nM and the “TdP liability” value (TdP) is given as “devoid of QT prolongation and TdP liability”. For the same compound, the “QT prolongation” value (QT interval; in patients / in vivo) was “devoid of QT prolongation”.

For `CC(C)NCC(O)c1ccc(NS(C)(=O)=O)cc1` (centres unmarked) [Sotalol], the “alterations in beat patterns / arrhythmic beats” value [1] is listed as “Irregular beating patterns were observed”, the Cmax ([2]; Table I) is listed as 14700 nM and the Cmax ([2]; Table II) is listed as 14700 nM.

For `CC(C)(C)c1ccc(C(O)CCCN2CCC(C(O)(c3ccccc3)c3ccccc3)CC2)cc1` (centres unmarked) [Terfenadine], the Cmax ([2]; Table I) is given as 300 nM and the Cmax ([2]; Table II) is given as 300 nM.

In the case of `NC1=N[C@H](O)[C@H]2[C@H]3O[C@]4(O)O[C@@H]([C@@H](O)[C@@]2(N1)[C@@H]4O)[C@]3(O)CO` [Tetrodotoxin], the beat rate [1] is reported as “reduction in beat rate”.

With `CCN(c1ccccc1)c1cc(=NC)n(C)c(C)n1.Cl` [ZD7288] the beat rate ([1]; iPSC-CMs, impedance) was “reduction in beat rate”.

For `Cc1ccc2c(c1)C(=O)C1(O)CCN(c3ccccc3)C1=N2` (centres unmarked) [blebbistatin], the “cardiomyocyte beating using impedance” value ([1]; iPSC-CMs, myosin II inhibition) was “no cardiomyocyte beating was observed” and the “electrophysiology of the cardiomyocytes detected by MEA” value [3] was “remained unchanged”.
